# From patent US10689398B2, “OXA-Diazaspiro compounds having activity against pain” (ESTEVE PHARMACEUTICALS, S.A., priority 2015, dated 2020)
# Biological target: human σ1 receptor (Homo sapiens (Human), UniProt Q99720)
# Test: Human σ1 receptor radioligand assay
# Format: binding
# Conditions: transfected HEK-293 membranes, [3H](+)-pentazocine radioligand
# Procedure: Human σ1 Receptor Radioligand Assay
# To investigate binding properties of test compounds to human σ1 receptor, transfected HEK-293 membranes and [^3H](+)-pentazocine (Perkin Elmer, NET-1056), as the radioligand, were used. The assay was carried out with 7 μg of membrane suspension, 5 nM of [^3H](+)-pentazocine in either absence or presence of either buffer or 10 μM Haloperidol for total and non-specific binding, respectively. Binding buffer contained Tris-HCl 50 mM at pH 8. Plates were incubated at 37° C. for 120 minutes. After the incubation period, the reaction mix was then transferred to MultiScreen HTS, FC plates (Millipore), filtered and plates were washed 3 times with ice-cold 10 mM Tris-HCL (pH7.4). Filters were dried and counted at approximately 40% efficiency in a MicroBeta scintillation counter (Perkin-Elmer) using EcoScint liquid scintillation cocktail
# Chain of human σ1 receptor (Q99720 whole entry): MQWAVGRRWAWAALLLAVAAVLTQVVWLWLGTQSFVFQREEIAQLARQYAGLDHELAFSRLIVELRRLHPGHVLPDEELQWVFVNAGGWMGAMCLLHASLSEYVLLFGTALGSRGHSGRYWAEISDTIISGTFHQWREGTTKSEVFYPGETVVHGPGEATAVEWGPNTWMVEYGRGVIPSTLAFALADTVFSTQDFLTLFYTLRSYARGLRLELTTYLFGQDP
row,Compound,Ki [nM]
1,"CC(C)CCN1CC2(C1)CN(C(C)C)C(=O)[C@@H](C)O2 [Example 40, (R)-2-isopentyl-8-isopropyl-6-methyl-5-oxa-2,8-diazaspiro[3.5]nonan-7-one]",≥ 500
2,"CC(C)CCN1CC2(C1)CN(C(C)C)C(=O)[C@H](C)O2 [Example 41, (S)-2-isopentyl-8-isopropyl-6-methyl-5-oxa-2,8-diazaspiro[3.5]nonan-7-one]",≥ 500
3,"CC(C)CN1CC2(C1)CN(C(C)C)C(=O)[C@@H](C)O2 [Example 42, (R)-2-isobutyl-8-isopropyl-6-methyl-5-oxa-2,8-diazaspiro[3.5]nonan-7-one]",≥ 500
4,"CC(C)CN1CC2(C1)CN(C(C)C)C(=O)[C@H](C)O2 [Example 43, (S)-2-isobutyl-8-isopropyl-6-methyl-5-oxa-2,8-diazaspiro[3.5]nonan-7-one]",≥ 500
5,"O=C(c1ccccc1)N1CC2(CCCN(Cc3ccccc3)CC2)OC2(CC2)C1 (stereo not shown) [Example 56, (8-benzyl-4-oxa-8,13-diazadispiro[2.1.6.3]tetradecan-13-yl)(phenyl)methanone]",< 100
6,"CCN1CC2(CCCN(Cc3ccccc3)CC2)OC(C)(C)C1=O (stereo not shown) [Example 57, 9-benzyl-4-ethyl-2,2-dimethyl-1-oxa-4,9-diazaspiro[5.6]dodecan-3-one]",< 100
7,"CCN1C[C@@]2(CCCN(Cc3ccccc3)CC2)O[C@H](C)C1=O [Example 59, (2R,6S)-9-benzyl-4-ethyl-2-methyl-1-oxa-4,9-diazaspiro[5.6]dodecan-3-one]",≥ 500
8,"CCN1C[C@@]2(CCCN(Cc3ccccc3)CC2)O[C@@H](C)C1=O [Example 61, (2S,6S)-9-benzyl-4-ethyl-2-methyl-1-oxa-4,9-diazaspiro[5.6]dodecan-3-one]",≥ 500
9,"CCN1C[C@@]2(CCCN(Cc3ccc(F)cc3)CC2)O[C@H](C)C1=O [Example 63, (2R,6S)-4-ethyl-9-(4-fluorobenzyl)-2-methyl-1-oxa-4,9-diazaspiro[5.6]dodecan-3-one]",≥ 500
10,"CCN1C[C@]2(CCCN(Cc3ccc(F)cc3)CC2)O[C@H](C)C1=O [Example 64, (2R,6R)-4-ethyl-9-(4-fluorobenzyl)-2-methyl-1-oxa-4,9-diazaspiro[5.6]dodecan-3-one]",≥ 500
11,"CCN1C[C@@]2(CCCN(Cc3ccc(F)cc3)CC2)O[C@@H](C)C1=O [Example 65, (2S,6S)-4-ethyl-9-(4-fluorobenzyl)-2-methyl-1-oxa-4,9-diazaspiro[5.6]dodecan-3-one]",≥ 500
12,"CCN1C[C@]2(CCCN(Cc3ccc(F)cc3)CC2)O[C@@H](C)C1=O [Example 66, (2S,6R)-4-ethyl-9-(4-fluorobenzyl)-2-methyl-1-oxa-4,9-diazaspiro[5.6]dodecan-3-one]",≥ 500
13,"CN1CC2(CCCN(Cc3ccccc3)CC2)OC2(CC2)C1=O (stereo not shown) [Example 71, 8-benzyl-13-methyl-4-oxa-8,13-diazadispiro[2.1.6.3]tetradecan-14-one]",≥ 500
14,"CCN1CC2(CN(CC(C)(C)C)C2)O[C@@H](C)C1=O [Example 74, (S)-8-ethyl-6-methyl-2-neopentyl-5-oxa-2,8-diazaspiro[3.5]nonan-7-one]",≥ 500
15,"CCN1CC2(CN(CC(C)(C)C)C2)O[C@H](C)C1=O [Example 75, (R)-8-ethyl-6-methyl-2-neopentyl-5-oxa-2,8-diazaspiro[3.5]nonan-7-one]",≥ 500
16,"c1ccc(CCN2CCCC3(C2)CN(Cc2ccccc2)CC2(CC2)O3)cc1 (stereo not shown) [Example 79, 12-benzyl-7-phenethyl-4-oxa-7,12-diazadispiro[2.1.5.3]tridecane]",< 100
17,"CC(C)CCN1CCCC2(C1)CN(Cc1ccccc1)CC1(CC1)O2 (stereo not shown) [Example 80, 12-benzyl-7-isopentyl-4-oxa-7,12-diazadispiro[2.1.5.3]tridecane]",< 100
18,"CC(C)CN1CCCC2(C1)CN(Cc1ccccc1)CC1(CC1)O2 (stereo not shown) [Example 81, 12-benzyl-7-isobutyl-4-oxa-7,12-diazadispiro[2.1.5.3]tridecane]",< 100
19,"CC(C)CCN1CCCC2(CC1)CN(Cc1ccccc1)CC1(CC1)O2 (stereo not shown) [Example 84, 13-benzyl-8-isopentyl-4-oxa-8,13-diazadispiro[2.1.6.3]tetradecane]",< 100

# More lines, now with the values ahead:
row,Ki [nM],Compound
1,≥ 500,"CC(C)N1CC2(CN(CCC(C)(C)C)C2)O[C@@H](C)C1=O [Example 44, (S)-2-(3,3-dimethylbutyl)-8-isopropyl-6-methyl-5-oxa-2,8-diazaspiro[3.5]nonan-7-one]"
2,≥ 500,"CC(C)N1CC2(CN(CCC(C)(C)C)C2)O[C@H](C)C1=O [Example 45, (R)-2-(3,3-dimethylbutyl)-8-isopropyl-6-methyl-5-oxa-2,8-diazaspiro[3.5]nonan-7-one]"
3,≥ 500,"CCN1C[C@@]2(CCCN(CCC(C)C)CC2)O[C@H](C)C1=O [Example 46, (2R,6S)-4-ethyl-9-isopentyl-2-methyl-1-oxa-4,9-diazaspiro[5.6]dodecan-3-one]"
4,≥ 500,"CCN1C[C@]2(CCCN(CCC(C)C)CC2)O[C@H](C)C1=O [Example 47, (2R,6R)-4-ethyl-9-isopentyl-2-methyl-1-oxa-4,9-diazaspiro[5.6]dodecan-3-one]"
5,≥ 500,"CCN1C[C@@]2(CCCN(CCC(C)C)CC2)O[C@@H](C)C1=O [Example 48, (2S,6S)-4-ethyl-9-isopentyl-2-methyl-1-oxa-4,9-diazaspiro[5.6]dodecan-3-one]"
6,≥ 500,"CCN1C[C@]2(CCCN(CCC(C)C)CC2)O[C@@H](C)C1=O [Example 49, (2S,6R)-4-ethyl-9-isopentyl-2-methyl-1-oxa-4,9-diazaspiro[5.6]dodecan-3-one]"
7,≥ 500,"CC(C)OCCN1CCCC2(CC1)CN(C(=O)c1ccccc1)CC(C)(C)O2 (stereo not shown) [Example 50, (9-(2-isopropoxyethyl)-2,2-dimethyl-1-oxa-4,9-diazaspiro[5.6]dodecan-4-yl)(phenyl)methanone]"
8,≥ 500,"O=C(c1ccccc1)N1CC2(CC2)OC2(CCCN(Cc3ccccc3)C2)C1 (stereo not shown) [Example 55, (7-benzyl-4-oxa-7,12-diazadispiro[2.1.5.3]tridecan-12-yl)(phenyl)methanone]"
9,≥ 500,"CCN1CC2(CCCN(Cc3ccc(C#N)cc3)CC2)OC(C)(C)C1=O (stereo not shown) [Example 58, 4-((4-ethyl-2,2-dimethyl-3-oxo-1-oxa-4,9-diazaspiro[5.6]dodecan-9-yl)methyl)benzonitrile]"
10,≥ 500,"CCN1C[C@]2(CCCN(Cc3ccccc3)CC2)O[C@H](C)C1=O [Example 60, (2R,6R)-9-benzyl-4-ethyl-2-methyl-1-oxa-4,9-diazaspiro[5.6]dodecan-3-one]"
11,≥ 500,"CCN1C[C@]2(CCCN(Cc3ccccc3)CC2)O[C@@H](C)C1=O [Example 62, (2S,6R)-9-benzyl-4-ethyl-2-methyl-1-oxa-4,9-diazaspiro[5.6]dodecan-3-one]"
12,≥ 500,"CCN1C[C@@]2(CCCN(Cc3ccc(C#N)cc3)CC2)O[C@H](C)C1=O [Example 67, 4-(((2R,6S)-4-ethyl-2-methyl-3-oxo-1-oxa-4,9-diazaspiro[5.6]dodecan-9-yl)methyl)benzonitrile]"
13,≥ 500,"CCN1C[C@]2(CCCN(Cc3ccc(C#N)cc3)CC2)O[C@H](C)C1=O [Example 68, 4-(((2R,6R)-4-ethyl-2-methyl-3-oxo-1-oxa-4,9-diazaspiro[5.6]dodecan-9-yl)methyl)benzonitrile]"
14,≥ 500,"CCN1C[C@@]2(CCCN(Cc3ccc(C#N)cc3)CC2)O[C@@H](C)C1=O [Example 69, 4-(((2S,6S)-4-ethyl-2-methyl-3-oxo-1-oxa-4,9-diazaspiro[5.6]dodecan-9-yl)methyl)benzonitrile]"
15,≥ 500,"CCN1C[C@]2(CCCN(Cc3ccc(C#N)cc3)CC2)O[C@@H](C)C1=O [Example 70, 4-(((2S,6R)-4-ethyl-2-methyl-3-oxo-1-oxa-4,9-diazaspiro[5.6]dodecan-9-yl)methyl)benzonitrile]"
16,≥ 500,"CN1CC2(CCCN(Cc3ccc(F)cc3)CC2)OC2(CC2)C1=O (stereo not shown) [Example 72, 8-(4-fluorobenzyl)-13-methyl-4-oxa-8,13-diazadispiro[2.1.6.3]tetradecan-14-one]"
17,≥ 500,"CN1CC2(CCCN(Cc3ccc(C#N)cc3)CC2)OC2(CC2)C1=O (stereo not shown) [Example 73, 4-((13-methyl-14-oxo-4-oxa-8,13-diazadispiro[2.1.6.3]tetradecan-8-yl)methyl)benzonitrile]"
18,≥ 500,"CC(C)N1CC2(CN(CC(C)(C)C)C2)O[C@@H](C)C1=O [Example 76, (S)-8-isopropyl-6-methyl-2-neopentyl-5-oxa-2,8-diazaspiro[3.5]nonan-7-one]"
19,≥ 500,"CC(C)N1CC2(CN(CC(C)(C)C)C2)O[C@H](C)C1=O [Example 77, (R)-8-isopropyl-6-methyl-2-neopentyl-5-oxa-2,8-diazaspiro[3.5]nonan-7-one]"
20,< 100,"c1ccc(CN2CCCC3(C2)CN(Cc2ccccc2)CC2(CC2)O3)cc1 (stereo not shown) [Example 78, 7,12-dibenzyl-4-oxa-7,12-diazadispiro[2.1.5.3]tridecane]"
21,< 100,"c1ccc(CN2CCCC3(CC2)CN(Cc2ccccc2)CC2(CC2)O3)cc1 (stereo not shown) [Example 82, 8,13-dibenzyl-4-oxa-8,13-diazadispiro[2.1.6.3]tetradecane]"
22,< 100,"c1ccc(CCN2CCCC3(CC2)CN(Cc2ccccc2)CC2(CC2)O3)cc1 (stereo not shown) [Example 83, 13-benzyl-8-phenethyl-4-oxa-8,13-diazadispiro[2.1.6.3]tetradecane]"
23,< 100,"CC(C)CN1CCCC2(CC1)CN(Cc1ccccc1)CC1(CC1)O2 (stereo not shown) [Example 85, 13-benzyl-8-isobutyl-4-oxa-8,13-diazadispiro[2.1.6.3]tetradecane]"
24,< 100,"CCN1CC(C)(C)OC2(CCCN(Cc3ccccc3)CC2)C1 (stereo not shown) [Example 86, 9-benzyl-4-ethyl-2,2-dimethyl-1-oxa-4,9-diazaspiro[5.6]dodecane]"
